Assay results reported in ChEMBL document CHEMBL1127144, “Cyclopentenones as potential inhibitors of penicillin sensitive enzymes” (Bioorg Med Chem Lett, 1993).
Active and inactive are the calls of the source.

Tests used:
Bacillus subtilis = assay: Compound was evaluated for antibacterial activity against Bacillus subtilis ATCC 6633; Inactive; type: functional, organism-based
[1] = molecular target: Beta-lactamase TEM (Escherichia coli) (UniProt P62593); assay: Compound was evaluated for the inhibitory activity against beta-lactamase of Escherichia coli (TEM-1); Inactive
Chain of Beta-lactamase TEM (Escherichia coli) (P62593 whole entry): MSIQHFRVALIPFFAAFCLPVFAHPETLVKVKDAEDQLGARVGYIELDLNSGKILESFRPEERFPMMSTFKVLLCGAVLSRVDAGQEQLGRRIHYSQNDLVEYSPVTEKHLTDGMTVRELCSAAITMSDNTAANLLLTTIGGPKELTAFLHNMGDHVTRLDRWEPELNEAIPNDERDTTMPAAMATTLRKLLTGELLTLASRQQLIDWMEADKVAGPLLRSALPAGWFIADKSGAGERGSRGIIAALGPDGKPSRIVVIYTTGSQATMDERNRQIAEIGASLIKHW

[2] = molecular target: Beta-lactamase (Enterobacter cloacae) (UniProt P05364); assay: Compound was evaluated for the inhibitory activity against beta-lactamase of Enterobacter cloacae P99; Inactive
Chain of Beta-lactamase (Enterobacter cloacae) (P05364 21-381 limits assumed): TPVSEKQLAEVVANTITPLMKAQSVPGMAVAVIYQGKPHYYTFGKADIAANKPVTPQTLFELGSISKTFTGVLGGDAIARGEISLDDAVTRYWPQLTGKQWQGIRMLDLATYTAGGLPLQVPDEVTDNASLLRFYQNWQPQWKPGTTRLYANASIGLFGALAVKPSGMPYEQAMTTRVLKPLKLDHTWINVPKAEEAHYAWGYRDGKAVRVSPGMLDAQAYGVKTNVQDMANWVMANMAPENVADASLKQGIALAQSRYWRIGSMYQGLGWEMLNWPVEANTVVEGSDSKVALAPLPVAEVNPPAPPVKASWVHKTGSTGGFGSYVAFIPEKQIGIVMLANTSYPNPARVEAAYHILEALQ

[3] = molecular target: T1, Beta-lactamase 1 (Bacillus cereus) (UniProt P00809); assay: Compound was evaluated for the inhibitory activity against beta-lactamase of Bacillus cereus; Inactive
T1 sequence (whole entry): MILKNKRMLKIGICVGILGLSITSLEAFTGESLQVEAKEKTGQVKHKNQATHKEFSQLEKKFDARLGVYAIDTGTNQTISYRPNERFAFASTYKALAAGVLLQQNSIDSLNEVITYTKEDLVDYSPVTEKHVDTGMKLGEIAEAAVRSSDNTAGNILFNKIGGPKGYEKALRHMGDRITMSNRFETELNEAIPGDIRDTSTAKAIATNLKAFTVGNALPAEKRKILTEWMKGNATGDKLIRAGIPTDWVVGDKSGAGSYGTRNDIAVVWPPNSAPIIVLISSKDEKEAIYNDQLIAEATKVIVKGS

Streptomyces = assay: Compound was evaluated for the inhibitory activity against D, D-carboxypeptidase of Streptomyces R39; Inactive
Enterococcus faecalis = assay: Compound was evaluated for antibacterial activity against […] I; Inactive; type: functional, organism-based
Escherichia coli = assay: Compound was evaluated for antibacterial activity against Escherichia coli ESS; Inactive; type: functional, organism-based
[4] = system: mycobacterium catarrhalis; assay: Compound was evaluated for antibacterial activity against Mycobacterium catarrhalis 1502; Inactive; type: functional
Pseudomonas aeruginosa = assay: Compound was evaluated for antibacterial activity against Pseudomonas aeruginosa 447B-ES48; Inactive; type: functional, organism-based
Streptococcus pneumoniae = assay: Compound was evaluated for antibacterial activity against Streptococcus pneumoniae 1761; Inactive; type: functional, organism-based
Streptococcus agalactiae = assay: Compound was evaluated for antibacterial activity against Streptococcus agalactiae Hester; Inactive; type: functional, organism-based
Staphylococcus aureus = assay: Compound was evaluated for antibacterial activity against Staphylococcus aureus Oxford; Inactive; type: functional, organism-based
Streptococcus pyogenes = assay: Compound was evaluated for antibacterial activity against Streptococcus pyogenes CN10; Inactive; type: functional, organism-based
Haemophilus influenzae = assay: Compound was evaluated for antibacterial activity against Haemophilus influenzae Q1; Inactive; type: functional, organism-based
[5] = molecular target: Beta-lactamase (Streptomyces albus G) (UniProt P14559); assay: Compound was evaluated for the inhibitory activity against beta-lactamase of Streptomyces albus G; Inactive
Chain of Beta-lactamase (Streptomyces albus G) (P14559 whole entry, looked up): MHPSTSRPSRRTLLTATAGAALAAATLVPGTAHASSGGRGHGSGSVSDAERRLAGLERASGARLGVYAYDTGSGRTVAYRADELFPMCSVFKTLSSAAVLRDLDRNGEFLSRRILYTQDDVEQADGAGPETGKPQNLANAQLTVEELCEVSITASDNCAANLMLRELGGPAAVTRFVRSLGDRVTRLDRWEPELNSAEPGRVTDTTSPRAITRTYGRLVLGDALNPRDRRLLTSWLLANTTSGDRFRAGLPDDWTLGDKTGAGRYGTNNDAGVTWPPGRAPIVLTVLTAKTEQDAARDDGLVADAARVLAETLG

Measured: Activity

O=C(O)CC1=CC(NC(=O)Cc2ccccc2)CC1=O (stereo not given)
inactive: Bacillus subtilis | [1] | [2] | [3] | Streptomyces | Enterococcus faecalis | Escherichia coli | [4] | Pseudomonas aeruginosa | Streptococcus pneumoniae | Streptococcus agalactiae | Staphylococcus aureus | Streptococcus pyogenes | Haemophilus influenzae | [5]

CO/N=C(/C(=O)NC1C=C(CC(=O)O)C(=O)C1)c1csc(N)n1 (stereo not given)
inactive: Bacillus subtilis | [1] | [2] | [3] | Streptomyces | Enterococcus faecalis | Escherichia coli | [4] | Pseudomonas aeruginosa | Streptococcus pneumoniae | Streptococcus agalactiae | Staphylococcus aureus | Streptococcus pyogenes | Haemophilus influenzae | [5]

NC1C=C(CC(=O)O)C(=O)C1 (stereo not given)
inactive: Bacillus subtilis | [1] | [2] | [3] | Streptomyces | Enterococcus faecalis | Escherichia coli | [4] | Pseudomonas aeruginosa | Streptococcus pneumoniae | Streptococcus agalactiae | Staphylococcus aureus | Streptococcus pyogenes | Haemophilus influenzae | [5]
